From PubChem BioAssay AID256 (DTP/NCI, 2004)
Several values for one entry are separate records, joined by “and”; a condition that tells them apart may be missing. Equal entries are not always repeated. Toxic doses and inconclusive results are not listed.

Test system: CD2F1 mice, L1210 leukemia ip, survival T/C
Experiment: NCI In Vivo Anticancer Drug Screen. Data for tumor model L1210 Leukemia (intraperitoneal) in CD2F1 (CDF1) mice
Conditions: higher = longer survival
Procedure, shortened: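 Transplantable tumor in mice; compound-treated vs vehicle-treated groups. Read-out = treated/control ratio of the measured endpoint.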

[1] = endpoint: mean survival time, dose: 100.0 mg/kg/injection, schedule: Q04DX002 (ip), vehicle: saline
[2] = endpoint: mean survival time, dose: 200.0 mg/kg/injection, schedule: Q04DX002 (ip), vehicle: saline
[3] = endpoint: mean survival time, dose: 100.0 mg/kg/injection, schedule: Q04DX003 (ip), vehicle: saline with Tween-80
[4] = endpoint: mean survival time, dose: 200.0 mg/kg/injection, schedule: Q04DX003 (ip), vehicle: saline with Tween-80
[5] = endpoint: mean survival time, dose: 400.0 mg/kg/injection, schedule: Q04DX003 (ip), vehicle: saline with Tween-80
[6] = endpoint: mean survival time, dose: 100.0 mg/kg/injection, schedule: Q01DX009 (ip), vehicle: saline with Tween-80
[7] = endpoint: mean survival time, dose: 400.0 mg/kg/injection, schedule: Q01DX009 (ip), vehicle: saline with Tween-80

NCCCNCCCCNC(=O)C(O)NC(=O)CCCCCCN=C(N)N (centres undefined)
T/C (endpoint: median survival time, dose: 0.19 mg/kg/injection, schedule: Q01DX005 (iv), vehicle: saline): 123 % of control
T/C (endpoint: median survival time, dose: 0.39 mg/kg/injection, schedule: Q01DX009 (ip), vehicle: saline): 185 % of control and 231 % of control
T/C (endpoint: median survival time, dose: 0.75 mg/kg/injection, schedule: Q01DX009 (ip), vehicle: saline): 198 % of control
T/C (endpoint: median survival time, dose: 0.78 mg/kg/injection, schedule: Q01DX005 (iv), vehicle: other): 153 % of control
T/C (endpoint: median survival time, dose: 0.78 mg/kg/injection, schedule: Q01DX005 (iv), vehicle: saline): 156 % of control
T/C (endpoint: median survival time, dose: 0.78 mg/kg/injection, schedule: Q01DX009 (ip), vehicle: other): 213 % of control
T/C (endpoint: median survival time, dose: 1.3 mg/kg/injection, schedule: Q01DX005 (iv), vehicle: other): 153 % of control
T/C (endpoint: median survival time, dose: 1.3 mg/kg/injection, schedule: Q01DX005 (iv), vehicle: saline): 161 % of control
T/C (endpoint: median survival time, dose: 1.5 mg/kg/injection, schedule: Q01DX009 (ip), vehicle: saline): 220 % of control
T/C (endpoint: median survival time, dose: 1.56 mg/kg/injection, schedule: Q01DX005 (iv), vehicle: saline): 160 % of control
T/C (endpoint: median survival time, dose: 1.56 mg/kg/injection, schedule: Q01DX009 (ip), vehicle: other): 213 % of control
T/C (endpoint: median survival time, dose: 2.16 mg/kg/injection, schedule: Q01DX005 (iv), vehicle: other): 171 % of control
T/C (endpoint: median survival time, dose: 2.16 mg/kg/injection, schedule: Q01DX005 (iv), vehicle: saline): 165 % of control
T/C (endpoint: median survival time, dose: 3.0 mg/kg/injection, schedule: Q01DX009 (ip), vehicle: saline): 220 % of control
T/C (endpoint: median survival time, dose: 3.12 mg/kg/injection, schedule: Q01DX005 (iv), vehicle: saline): 172 % of control
T/C (endpoint: median survival time, dose: 3.12 mg/kg/injection, schedule: Q01DX009 (ip), vehicle: other): 204 % of control
T/C (endpoint: median survival time, dose: 3.6 mg/kg/injection, schedule: Q01DX005 (iv), vehicle: other): 176 % of control
T/C (endpoint: median survival time, dose: 3.6 mg/kg/injection, schedule: Q01DX005 (iv), vehicle: saline): 164 % of control
T/C (endpoint: median survival time, dose: 4.4 mg/kg/injection, schedule: Q01DX009 (ip), vehicle: saline): 221 % of control and 225 % of control and 230 % of control
T/C (endpoint: median survival time, dose: 4.5 mg/kg/injection, schedule: Q01DX009 (ip), vehicle: saline): 219 % of control
T/C (endpoint: median survival time, dose: 6.0 mg/kg/injection, schedule: Q01DX005 (iv), vehicle: other): 175 % of control
T/C (endpoint: median survival time, dose: 6.0 mg/kg/injection, schedule: Q01DX005 (iv), vehicle: saline): 172 % of control
T/C (endpoint: median survival time, dose: 6.0 mg/kg/injection, schedule: Q01DX009 (ip), vehicle: saline): 219 % of control
T/C (endpoint: median survival time, dose: 6.25 mg/kg/injection, schedule: Q01DX005 (iv), vehicle: saline): 430 % of control
T/C (endpoint: median survival time, dose: 6.25 mg/kg/injection, schedule: Q01DX009 (ip), vehicle: other): 225 % of control
T/C (endpoint: median survival time, dose: 7.88 mg/kg/injection, schedule: Q01DX005 (sc), vehicle: water): 163 % of control
T/C (endpoint: median survival time, dose: 10.0 mg/kg/injection, schedule: Q01DX005 (iv), vehicle: saline): 180 % of control
T/C (endpoint: median survival time, dose: 12.0 mg/kg/injection, schedule: Q01DX009 (ip), vehicle: saline): 223 % of control
T/C (endpoint: median survival time, dose: 12.5 mg/kg/injection, schedule: Q01DX009 (ip), vehicle: other): 242 % of control
T/C (endpoint: median survival time, dose: 15.75 mg/kg/injection, schedule: Q01DX005 (sc), vehicle: water): 173 % of control and 179 % of control
T/C (endpoint: median survival time, dose: 25.0 mg/kg/injection, schedule: Q01DX009 (ip), vehicle: other): 227 % of control
T/C (endpoint: median survival time, dose: 31.5 mg/kg/injection, schedule: Q01DX005 (sc), vehicle: water): 178 % of control and 182 % of control
T/C (endpoint: median survival time, dose: 31.5 mg/kg/injection, schedule: Q03HX008 (sc), vehicle: water): 164 % of control
T/C (endpoint: median survival time, dose: 37.0 mg/kg/injection, schedule: Q01DX005 (sc), vehicle: water): 183 % of control
T/C (endpoint: median survival time, dose: 45.0 mg/kg/injection, schedule: Q01DX005 (sc), vehicle: water): 176 % of control
T/C (endpoint: median survival time, dose: 150.0 micrograms per hour, schedule: Q#X X048 (sc), vehicle: water): 182 % of control
T/C (endpoint: median survival time, dose: 150.0 micrograms per hour, schedule: Q#X X072 (sc), vehicle: water): 182 % of control
T/C (endpoint: median survival time, dose: 150.0 micrograms per hour, schedule: Q#X X096 (sc), vehicle: water): 205 % of control
T/C (endpoint: median survival time, dose: 170.0 micrograms per hour, schedule: Q#X X048 (sc), vehicle: water): 178 % of control
T/C (endpoint: median survival time, dose: 170.0 micrograms per hour, schedule: Q#X X072 (sc), vehicle: water): 200 % of control
T/C (endpoint: median survival time, dose: 200.0 micrograms per hour, schedule: Q#X X048 (sc), vehicle: water): 110 % of control
T/C (endpoint: median survival time, dose: 200.0 micrograms per hour, schedule: Q#X X072 (sc), vehicle: water): 101 % of control
T/C (endpoint: median survival time, dose: 200.0 micrograms per hour, schedule: Q#X X096 (sc), vehicle: water): 114 % of control
T/C (endpoint: median survival time, dose: 207.0 micrograms per hour, schedule: Q#X X048 (sc), vehicle: water): 168 % of control
T/C (endpoint: median survival time, dose: 207.0 micrograms per hour, schedule: Q#X X072 (sc), vehicle: water): 120 % of control
T/C (endpoint: median survival time, dose: 207.0 micrograms per hour, schedule: Q#X X096 (sc), vehicle: water): 109 % of control

COc1nc(=O)n(C2C=CC(=O)O2)cc1F (centres undefined)
T/C (endpoint: median survival time, dose: 6.25 mg/kg/injection, schedule: Q01DX009 (ip), vehicle: saline): 98 % of control
T/C (endpoint: median survival time, dose: 12.5 mg/kg/injection, schedule: Q01DX009 (ip), vehicle: saline): 100 % of control
T/C (endpoint: median survival time, dose: 25.0 mg/kg/injection, schedule: Q01DX009 (ip), vehicle: saline): 108 % of control
T/C (endpoint: median survival time, dose: 50.0 mg/kg/injection, schedule: Q01DX009 (ip), vehicle: saline): 108 % of control
T/C (endpoint: median survival time, dose: 100.0 mg/kg/injection, schedule: Q01DX009 (ip), vehicle: saline): 110 % of control

Clc1ccc(C[n+]2ccccc2)cc1Cl
T/C (endpoint: mean survival time, dose: 5.0 mg/kg/injection, schedule: Q01DX009 (ip), vehicle: saline): 98 % of control
T/C (endpoint: mean survival time, dose: 10.0 mg/kg/injection, schedule: Q01DX009 (ip), vehicle: saline): 104 % of control
T/C (endpoint: mean survival time, dose: 10.0 mg/kg/injection, schedule: Q04DX003 (ip), vehicle: saline): 100 % of control
T/C (endpoint: mean survival time, dose: 20.0 mg/kg/injection, schedule: Q01DX009 (ip), vehicle: saline): 98 % of control
T/C (endpoint: mean survival time, dose: 20.0 mg/kg/injection, schedule: Q04DX003 (ip), vehicle: saline): 94 % of control

CC1C([N+]2(C)CCCCC2)CS1(=O)=O (centres undefined)
T/C [1]: 103 % of control
T/C [2]: 100 % of control
T/C (endpoint: mean survival time, dose: 400.0 mg/kg/injection, schedule: Q04DX002 (ip), vehicle: saline): 95 % of control

[Cl][Pt+2][Cl].[NH-]CCO.[NH-]CCO
T/C (endpoint: mean survival time, dose: 12.5 mg/kg/injection, schedule: Q04DX003 (ip), vehicle: saline): 102 % of control
T/C (endpoint: mean survival time, dose: 50.0 mg/kg/injection, schedule: Q04DX003 (ip), vehicle: saline): 118 % of control

C1=CC=CN(c2ccccc2)C=C1
T/C (endpoint: mean survival time, dose: 100.0 mg/kg/injection, schedule: Q04DX003 (ip), vehicle: other): 106 % of control
T/C (endpoint: mean survival time, dose: 200.0 mg/kg/injection, schedule: Q04DX003 (ip), vehicle: other): 95 % of control
T/C (endpoint: mean survival time, dose: 400.0 mg/kg/injection, schedule: Q04DX003 (ip), vehicle: other): 97 % of control

O=CN1CCCCC1
T/C [1]: 97 % of control
T/C [2]: 108 % of control

Nc1nc(N)c2ncn(Cc3ccccc3)c2n1
T/C [3]: 98 % of control
T/C [4]: 93 % of control
T/C [5]: 100 % of control

Nc1cccc(NC=O)c1
T/C (endpoint: mean survival time, dose: 100.0 mg/kg/injection, schedule: Q04DX003 (ip), vehicle: Klucel (hydroxypropylcellulose) (HPC)): 102 % of control

OCC(O)COCc1ccccc1 (centres undefined)
T/C (endpoint: mean survival time, dose: 100.0 mg/kg/injection, schedule: Q01DX009 (ip), vehicle: saline): 94 % of control
T/C (endpoint: mean survival time, dose: 200.0 mg/kg/injection, schedule: Q01DX009 (ip), vehicle: saline): 94 % of control
T/C (endpoint: mean survival time, dose: 400.0 mg/kg/injection, schedule: Q01DX009 (ip), vehicle: saline): 96 % of control

CCC(=O)OCCn1c2ccccc2c2c(C)c3cnccc3c(C)c21
T/C [6]: 110 % of control
T/C [3]: 102 % of control
T/C [4]: 107 % of control
T/C [7]: 154 % of control
T/C [5]: 123 % of control

Cc1c[n+]([O-])cc(=O)[nH]1
T/C [6]: 97 % of control
T/C [3]: 96 % of control
T/C (endpoint: mean survival time, dose: 200.0 mg/kg/injection, schedule: Q01DX009 (ip), vehicle: saline with Tween-80): 97 % of control
T/C [4]: 100 % of control
T/C [7]: 95 % of control
T/C [5]: 100 % of control

COc1cc2c(cc1OC)-c1ccc3cc4c(cc3c1N(C)C2)OCO4
T/C (endpoint: mean survival time, dose: 5.0 mg/kg/injection, schedule: Q01DX009 (ip), vehicle: water): 106 % of control
T/C (endpoint: mean survival time, dose: 10.0 mg/kg/injection, schedule: Q01DX009 (ip), vehicle: water): 105 % of control
T/C (endpoint: mean survival time, dose: 20.0 mg/kg/injection, schedule: Q01DX009 (ip), vehicle: water): 105 % of control
T/C (endpoint: mean survival time, dose: 40.0 mg/kg/injection, schedule: Q01DX009 (ip), vehicle: water): 108 % of control
T/C (endpoint: mean survival time, dose: 80.0 mg/kg/injection, schedule: Q01DX009 (ip), vehicle: water): 103 % of control
